Measurements from ChEMBL document CHEMBL5316287 (J Med Chem, 2023).

What was measured:
[1] = Unbound AUC in BALB/cAnNCrlCrlj mouse at 10 mg/kg,po; type: ADME, organism-based; conditions: in vivo
[2] = Oral bioavailability in BALB/cAnNCrlCrlj mouse at 10 mg/kg; type: ADME, organism-based; conditions: in vivo, po, 10 mg/kg
[3] = Metabolic stability in human liver microsomes assessed as intrinsic clearance at 1 uM; type: ADME, Microsome
VCaP [4] = test: Antitumor activity against human VCaP cells xenografted in castrated NSG mouse assessed as tumor growth inhibition at 1 mg/kg,po qd for 33 days consecutively; type: functional; conditions: 792 h, time 33 day, read-out: TGI
[5] = target: Histone acetyltransferase KAT2B (Homo sapiens, UniProt Q92831); test: Inhibition of PCAF (unknown origin) biotinylated H3 (1 to […])-GGK peptide as substrate incubated for 1 hr in presence of acetyl-coA by AlphaLISA assay
VCaP [6] = test: Antitumor activity against human VCaP cells xenografted in castrated NSG mouse assessed as tumor growth inhibition at 0.3 mg/kg,po qd for 33 days consecutively; type: functional; conditions: 792 h, time 33 day, read-out: TGI
VCaP [7] = test: Antiproliferative activity against AR-positive human VCaP cells assessed as cell growth inhibition incubated for 7 days by CellTiter-Glo assay; type: functional; conditions: 168 h, time 7 day
[8] = Toxicity in castrated NSG mouse xenografted with human VCaP cells assessed as mortality at 0.3 to 3 mg/kg,po qd for 33 days consecutively; type: organism-based; conditions: in vivo, 792 h, dose 0.3-3 mg/kg, time 33 day
[9] = target: Histone acetyltransferase KAT7 (Homo sapiens, UniProt O95251); test: Inhibition of MYST2 (unknown origin) biotinylated H4 (1 to 25)-GSGSK peptide as substrate incubated for 1 hr in presence of acetyl-coA by AlphaLISA assay
Sequence of Histone acetyltransferase KAT7 (O95251 whole entry): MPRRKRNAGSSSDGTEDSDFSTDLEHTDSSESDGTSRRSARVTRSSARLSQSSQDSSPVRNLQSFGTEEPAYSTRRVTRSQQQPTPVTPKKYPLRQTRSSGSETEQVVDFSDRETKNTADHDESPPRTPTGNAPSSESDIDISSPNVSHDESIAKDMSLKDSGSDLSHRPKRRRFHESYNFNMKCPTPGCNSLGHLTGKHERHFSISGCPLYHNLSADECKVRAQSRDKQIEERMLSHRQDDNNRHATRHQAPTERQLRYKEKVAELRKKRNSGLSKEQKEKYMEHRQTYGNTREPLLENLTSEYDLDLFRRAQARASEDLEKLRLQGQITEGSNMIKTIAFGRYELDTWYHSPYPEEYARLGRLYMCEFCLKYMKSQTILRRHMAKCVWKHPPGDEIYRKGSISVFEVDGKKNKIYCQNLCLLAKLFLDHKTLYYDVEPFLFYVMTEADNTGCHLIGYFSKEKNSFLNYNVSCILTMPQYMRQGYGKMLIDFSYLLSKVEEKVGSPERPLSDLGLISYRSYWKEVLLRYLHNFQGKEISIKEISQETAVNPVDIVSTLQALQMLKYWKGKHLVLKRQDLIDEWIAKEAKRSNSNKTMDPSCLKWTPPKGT

[10] = target: Histone acetyltransferase KAT2A (Homo sapiens, UniProt Q92830); test: Inhibition of GCN5 (unknown origin) biotinylated H3 (1 to […])-GGK peptide as substrate incubated for 1 hr in presence of acetyl-coA by AlphaLISA assay
LNCaP [11] = test: Inhibition of H3K27 acetylation in AR-positive human LNCaP cells at 3.9 to 1000 nM incubated for 72 hrs by Western blot analysis; type: functional, cell-based; conditions: dose 3.9-1000 nM
VCaP [12] = test: Antitumor activity against human VCaP cells xenografted in castrated NSG mouse assessed as tumor growth inhibition at 3 mg/kg,po qd for 33 days consecutively; type: functional; conditions: 792 h, time 33 day, read-out: TGI
[13] = Unbound clearance in BALB/cAnNCrlCrlj mouse at 1 mg/kg,iv administered as DMA/Tween80/saline (1:1:8 ratio) solution; type: ADME, organism-based; conditions: in vivo
LNCaP [14] = test: Inhibition of H3K18 acetylation in AR-positive human LNCaP cells at 3.9 to 1000 nM incubated for 72 hrs by Western blot analysis; type: functional, cell-based; conditions: dose 3.9-1000 nM
[15] = 1-Octanol/PBS partition coefficient, logD of the compound at pH 7.4 incubated for 30 mins by shake flask technique based HPLC-LC/MS analysis; type: physicochemical
[16] = Volume of distribution at steady state in BALB/cAnNCrlCrlj mouse at 1 mg/kg,iv administered as DMA/Tween80/saline (1:1:8 ratio) solution; type: ADME, organism-based; conditions: in vivo, read-out: Vdss
CREB-binding protein = CREB-binding protein (Homo sapiens, UniProt Q92793); test: Inhibition of CBP (unknown origin) biotinylated H4 (1 to 25)-GSGSK peptide as substrate incubated for 1 hr in presence of acetyl-coA by AlphaLISA assay
Sequence of CREB-binding protein (Q92793 whole entry): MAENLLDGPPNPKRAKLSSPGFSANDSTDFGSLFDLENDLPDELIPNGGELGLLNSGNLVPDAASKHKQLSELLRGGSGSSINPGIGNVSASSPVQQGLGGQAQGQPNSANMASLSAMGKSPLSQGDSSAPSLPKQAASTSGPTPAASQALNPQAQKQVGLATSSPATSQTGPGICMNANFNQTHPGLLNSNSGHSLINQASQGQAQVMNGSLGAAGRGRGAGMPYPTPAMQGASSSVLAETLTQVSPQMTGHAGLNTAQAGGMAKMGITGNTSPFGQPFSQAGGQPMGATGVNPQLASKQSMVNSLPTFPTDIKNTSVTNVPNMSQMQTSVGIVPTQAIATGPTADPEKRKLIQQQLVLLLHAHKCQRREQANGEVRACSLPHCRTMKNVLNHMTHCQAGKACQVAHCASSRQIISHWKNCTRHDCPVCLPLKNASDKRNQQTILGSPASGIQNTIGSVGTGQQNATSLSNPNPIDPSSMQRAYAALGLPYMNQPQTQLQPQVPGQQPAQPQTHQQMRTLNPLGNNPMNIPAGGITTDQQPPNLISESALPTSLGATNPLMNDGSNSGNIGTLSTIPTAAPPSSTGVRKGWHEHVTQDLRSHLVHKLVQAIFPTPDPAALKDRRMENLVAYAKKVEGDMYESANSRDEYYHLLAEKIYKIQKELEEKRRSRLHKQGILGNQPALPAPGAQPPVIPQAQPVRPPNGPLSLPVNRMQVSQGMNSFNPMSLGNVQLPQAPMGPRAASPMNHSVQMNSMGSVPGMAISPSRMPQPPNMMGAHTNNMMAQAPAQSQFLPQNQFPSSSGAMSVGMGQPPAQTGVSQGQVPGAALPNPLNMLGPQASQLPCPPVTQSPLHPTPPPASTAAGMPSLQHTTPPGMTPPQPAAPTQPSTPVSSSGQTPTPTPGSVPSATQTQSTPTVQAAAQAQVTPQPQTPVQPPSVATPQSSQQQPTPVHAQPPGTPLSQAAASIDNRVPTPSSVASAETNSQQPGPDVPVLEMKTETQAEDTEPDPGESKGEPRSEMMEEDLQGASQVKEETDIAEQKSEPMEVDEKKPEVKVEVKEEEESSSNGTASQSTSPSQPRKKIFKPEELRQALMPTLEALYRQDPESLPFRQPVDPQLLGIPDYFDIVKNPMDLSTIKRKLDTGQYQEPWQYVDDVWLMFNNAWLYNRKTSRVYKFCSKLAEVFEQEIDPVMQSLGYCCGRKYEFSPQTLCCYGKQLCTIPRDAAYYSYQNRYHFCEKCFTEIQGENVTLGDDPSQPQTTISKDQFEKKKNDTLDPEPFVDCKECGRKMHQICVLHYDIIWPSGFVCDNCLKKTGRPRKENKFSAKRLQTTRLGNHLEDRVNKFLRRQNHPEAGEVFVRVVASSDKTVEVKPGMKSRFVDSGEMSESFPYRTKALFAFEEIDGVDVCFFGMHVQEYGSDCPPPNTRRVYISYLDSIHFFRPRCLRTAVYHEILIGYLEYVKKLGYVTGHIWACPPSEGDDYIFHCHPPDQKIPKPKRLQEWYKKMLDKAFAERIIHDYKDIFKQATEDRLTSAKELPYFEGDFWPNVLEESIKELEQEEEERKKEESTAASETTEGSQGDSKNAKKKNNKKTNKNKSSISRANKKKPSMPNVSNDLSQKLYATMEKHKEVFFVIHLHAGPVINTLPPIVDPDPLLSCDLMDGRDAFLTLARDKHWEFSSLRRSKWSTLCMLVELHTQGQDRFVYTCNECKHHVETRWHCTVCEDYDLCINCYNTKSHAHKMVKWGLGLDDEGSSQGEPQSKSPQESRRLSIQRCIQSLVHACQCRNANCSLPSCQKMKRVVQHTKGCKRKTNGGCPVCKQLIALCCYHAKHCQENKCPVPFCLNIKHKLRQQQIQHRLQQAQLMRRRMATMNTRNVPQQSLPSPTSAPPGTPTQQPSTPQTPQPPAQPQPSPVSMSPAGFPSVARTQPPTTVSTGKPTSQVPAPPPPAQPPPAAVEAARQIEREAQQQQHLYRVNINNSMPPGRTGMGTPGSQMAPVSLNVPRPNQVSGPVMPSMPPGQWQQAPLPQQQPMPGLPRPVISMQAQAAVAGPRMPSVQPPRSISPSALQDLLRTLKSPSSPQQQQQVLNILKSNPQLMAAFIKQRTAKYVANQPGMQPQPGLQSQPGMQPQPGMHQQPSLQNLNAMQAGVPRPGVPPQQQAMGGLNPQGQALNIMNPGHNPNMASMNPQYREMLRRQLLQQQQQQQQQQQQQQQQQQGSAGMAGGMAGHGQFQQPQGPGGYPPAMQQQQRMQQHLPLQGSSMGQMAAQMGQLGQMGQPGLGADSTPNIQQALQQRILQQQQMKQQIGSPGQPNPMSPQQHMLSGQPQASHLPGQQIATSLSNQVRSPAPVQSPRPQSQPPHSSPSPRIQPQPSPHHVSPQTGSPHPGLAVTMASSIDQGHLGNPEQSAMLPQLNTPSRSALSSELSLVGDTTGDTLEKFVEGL

[17] = Half life in BALB/cAnNCrlCrlj mouse at 10 mg/kg,po; type: ADME, organism-based; conditions: in vivo
VCaP [18] = test: Inhibition of H3K18 acetylation in AR-positive human VCaP cells at 3.9 to 1000 nM incubated for 72 hrs by Western blot analysis; type: functional, cell-based; conditions: dose 3.9-1000 nM
CWR22R = test: Antiproliferative activity against AR-positive human 22Rv1 cells assessed as cell growth inhibition incubated for 7 days by CellTiter-Glo assay; type: functional; conditions: 22Rv1, 168 h, time 7 day
PC-3 = test: Antiproliferative activity against AR-negative human PC-3 cells assessed as cell growth inhibition incubated for 7 days by CellTiter-Glo assay; type: functional; conditions: PC-3, 168 h, time 7 day
[19] = target: Histone acetyltransferase p300 (Homo sapiens, UniProt Q09472); test: Inhibition of EP300 in human LK2 cells assessed as reduction in intracellular H3K27 acetylation incubated for 3 hrs by chemiluminescence based ELISA; type: cell-based
VCaP [20] = test: Downregulation of PSA expression in AR-positive human VCaP cells at 3.9 to 1000 nM incubated for 72 hrs by Western blot analysis; type: functional, cell-based; conditions: dose 3.9-1000 nM
LNCaP [21] = test: Antiproliferative activity against AR-positive human LNCaP cells assessed as cell growth inhibition incubated for 7 days by CellTiter-Glo assay; type: functional; conditions: 168 h, time 7 day
[22] = target: Histone acetyltransferase KAT6B (Homo sapiens, UniProt Q8WYB5); test: Inhibition of MYST4 (unknown origin) biotinylated H4 (1 to 25)-GSGSK peptide as substrate incubated for 1 hr in presence of acetyl-coA by AlphaLISA assay
Sequence of Histone acetyltransferase KAT6B (Q8WYB5 whole entry): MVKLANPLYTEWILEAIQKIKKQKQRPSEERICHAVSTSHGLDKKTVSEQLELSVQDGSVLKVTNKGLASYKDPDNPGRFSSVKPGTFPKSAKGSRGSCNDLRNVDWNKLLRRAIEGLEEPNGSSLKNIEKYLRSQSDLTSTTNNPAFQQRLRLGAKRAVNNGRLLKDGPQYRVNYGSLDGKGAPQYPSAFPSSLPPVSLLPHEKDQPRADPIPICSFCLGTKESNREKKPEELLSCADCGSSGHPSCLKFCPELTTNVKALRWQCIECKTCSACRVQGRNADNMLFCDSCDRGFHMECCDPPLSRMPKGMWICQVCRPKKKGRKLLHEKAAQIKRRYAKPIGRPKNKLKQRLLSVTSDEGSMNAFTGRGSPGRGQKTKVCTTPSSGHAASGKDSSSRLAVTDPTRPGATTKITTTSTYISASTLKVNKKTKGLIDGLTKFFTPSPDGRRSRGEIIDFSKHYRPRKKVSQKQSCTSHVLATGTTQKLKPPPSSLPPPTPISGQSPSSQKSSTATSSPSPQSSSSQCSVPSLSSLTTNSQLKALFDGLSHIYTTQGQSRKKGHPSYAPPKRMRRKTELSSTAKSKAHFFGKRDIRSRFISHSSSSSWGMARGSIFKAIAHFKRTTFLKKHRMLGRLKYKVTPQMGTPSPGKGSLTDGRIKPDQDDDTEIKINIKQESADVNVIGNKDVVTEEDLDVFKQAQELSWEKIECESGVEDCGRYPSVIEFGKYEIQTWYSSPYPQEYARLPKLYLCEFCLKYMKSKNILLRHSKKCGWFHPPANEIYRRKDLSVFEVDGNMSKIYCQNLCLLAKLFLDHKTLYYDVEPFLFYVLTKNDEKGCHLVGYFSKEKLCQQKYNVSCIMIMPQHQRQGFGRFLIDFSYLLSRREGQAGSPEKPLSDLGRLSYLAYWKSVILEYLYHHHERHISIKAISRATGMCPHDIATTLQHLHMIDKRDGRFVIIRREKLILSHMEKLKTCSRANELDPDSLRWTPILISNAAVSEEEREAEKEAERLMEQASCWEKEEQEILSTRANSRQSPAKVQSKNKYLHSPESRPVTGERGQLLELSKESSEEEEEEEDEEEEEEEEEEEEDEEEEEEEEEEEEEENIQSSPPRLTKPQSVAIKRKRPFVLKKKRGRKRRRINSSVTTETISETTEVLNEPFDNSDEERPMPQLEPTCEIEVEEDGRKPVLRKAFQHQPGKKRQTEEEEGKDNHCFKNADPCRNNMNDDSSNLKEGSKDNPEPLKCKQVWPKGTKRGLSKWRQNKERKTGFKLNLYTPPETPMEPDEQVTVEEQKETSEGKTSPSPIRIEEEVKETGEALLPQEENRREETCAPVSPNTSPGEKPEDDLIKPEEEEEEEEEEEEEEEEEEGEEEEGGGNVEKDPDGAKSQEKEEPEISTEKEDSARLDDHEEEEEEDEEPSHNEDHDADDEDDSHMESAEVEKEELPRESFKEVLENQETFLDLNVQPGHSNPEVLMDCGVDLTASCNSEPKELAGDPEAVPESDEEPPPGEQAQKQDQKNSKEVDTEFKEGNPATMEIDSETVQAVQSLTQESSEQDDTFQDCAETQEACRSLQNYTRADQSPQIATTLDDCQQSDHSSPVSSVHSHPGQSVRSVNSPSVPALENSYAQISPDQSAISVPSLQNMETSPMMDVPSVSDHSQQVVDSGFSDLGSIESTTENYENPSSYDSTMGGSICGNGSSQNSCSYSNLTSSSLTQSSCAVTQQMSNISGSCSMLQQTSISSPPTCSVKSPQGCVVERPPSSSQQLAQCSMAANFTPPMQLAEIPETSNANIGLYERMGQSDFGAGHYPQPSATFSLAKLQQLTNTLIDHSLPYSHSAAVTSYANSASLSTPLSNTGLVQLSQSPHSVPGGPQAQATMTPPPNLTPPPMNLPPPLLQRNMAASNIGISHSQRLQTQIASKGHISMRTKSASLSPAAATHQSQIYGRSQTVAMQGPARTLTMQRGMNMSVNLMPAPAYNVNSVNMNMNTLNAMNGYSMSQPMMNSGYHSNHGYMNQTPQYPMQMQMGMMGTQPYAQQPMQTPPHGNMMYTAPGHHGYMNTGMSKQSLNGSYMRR

[23] = Toxicity in castrated NSG mouse xenografted with human VCaP cells assessed as body weight loss at 0.3 to 3 mg/kg,po qd for 33 days consecutively; type: organism-based; conditions: in vivo, 792 h, dose 0.3-3 mg/kg, time 33 day
VCaP [24] = test: Antitumor activity against human VCaP cells xenografted in castrated NSG mouse assessed as decrease in plasma PSA expression at 0.3 to 3 mg/kg,po qd for 33 days consecutively and measured after 6 hrs by ELISA; type: functional, organism-based; conditions: dose 0.3-3 mg/kg, time 33.0 day
[25] = target: Histone acetyltransferase KAT5 (Homo sapiens, UniProt Q92993); test: Inhibition of TIP60 (unknown origin) biotinylated H4 (1 to 25)-GSGSK peptide as substrate incubated for 1 hr in presence of acetyl-coA by AlphaLISA assay
[26] = Cmax in BALB/cAnNCrlCrlj mouse at 10 mg/kg,po; type: ADME, organism-based; set-up: dose 10 mg/kg, route po; conditions: in vivo
[27] = AUC in BALB/cAnNCrlCrlj mouse at 10 mg/kg,po; type: ADME, organism-based; set-up: dose 10 mg/kg, route po; conditions: in vivo
LNCaP [28] = test: Downregulation of PSA expression in AR-positive human LNCaP cells at 3.9 to 1000 nM incubated for 72 hrs by Western blot analysis; type: functional, cell-based; conditions: dose 3.9-1000 nM
[29] = Metabolic stability in mouse liver microsomes assessed as intrinsic clearance at 1 uM; type: ADME, Microsome
VCaP [30] = test: Inhibition of H3K27 acetylation in AR-positive human VCaP cells at 3.9 to 1000 nM incubated for 72 hrs by Western blot analysis; type: functional, cell-based; conditions: dose 3.9-1000 nM

COc1ccc(C2(C(=O)N3C[C@H](F)C[C@@H]3C(=O)Nc3ccc4[nH]ncc4n3)CCC(F)(F)CC2)cc1
fAUC [1]: 5.33 µM·h | F [2]: 21% | intrinsic clearance [3]: 50 µL/min/mg | inhibition in vivo at 1 mg/kg (VCaP [4]): 74% | IC50 [5]: > 50000 nM | inhibition in vivo at 0.3 mg/kg (VCaP [6]): 39% | GI50 (VCaP [7]): 0.6 nM | Activity [8]: Non-Toxic | IC50 [9]: > 50000 nM | IC50 [10]: > 50000 nM | inhibition (LNCaP [11]): Dose-Dependent Effect | inhibition in vivo at 3 mg/kg (VCaP [12]): 109% | CL free [13]: 39 mL/min/kg | inhibition (LNCaP [14]): Dose-Dependent Effect | logD at 0.5 h [15]: 3 | Vd [16]: 0.14 L/kg | IC50 (CREB-binding protein): 1 nM | half-life [17]: 2.4 h | inhibition (VCaP [18]): Dose-Dependent Effect | GI50 (CWR22R): 6.5 nM | GI50 (PC-3): 287 nM | IC50 [19]: 54 nM | Activity (VCaP [20]): Dose-Dependent Effect | GI50 (LNCaP [21]): 3.4 nM | IC50 [22]: > 50000 nM | Activity [23]: Non-Toxic | Activity (VCaP [24]): Dose-Dependent Effect | IC50 [25]: > 50000 nM | Cmax [26]: 34 µM | AUC [27]: 130 µM·h | Activity (LNCaP [28]): Dose-Dependent Effect | intrinsic clearance (CLint) [29]: 50 µL/min/mg | inhibition (VCaP [30]): Dose-Dependent Effect
